The test system of one series is PBCEC. Particulars: cited from earlier work.
In the next series the test system is PBCEC monolayer. Description: Lucifer yellow permeability through PBCEC monolayer. The class given is in vitro ADME, porcine. On the procedure: Before starting each experiment, the TEER values and the electrical capacitance of all cell layers were measured via cellular impedance spectroscopy (cellZscope®, nanoAnalytics, Münster, Germany). […] TEER values relate to the constitution of the tight junctions limiting paracellular transfer of compounds. In addition to the TEER, electrical capacitances (CCl) were monitored for 48 h. Cellular phospholipid bilayers act like an electrical capacitor and also contribute to the cellular impedance. Changes of the CCl value give information about the integrity of the cell monolayer. In this experiment, a parallel set up was applied. For each treatment, one triplicate of filters was monitored via cellular impedance spectroscopy over the course of 48 h using a cellZscope® device–here, the basolateral compartment was prepared with 1650 μL serum free medium and the volume in the apical compartment was filled to 760 μL (ratio 1:2.17). Another triplicate for the same incubation conditions was kept in Transwell® filter cell culture multiple well plates (12 well format) over the course of 48 h. In the multiple well plates the ratio between the apical and the basolateral compartment was 1:3, therefore the starting volume in the apical compartment is 500 μL and 1500 μL in the basolateral compartment. Here, samples for quantitation of transfer of enniatins across the barrier were drawn after 1, 2.5, 6.5, 18, 24, 28, 42 and 48 hours in this given ratio i.e. 30 μL apical and 90 μL basolateral. After 48 h, the final TEER values of the filters from the multiple well plate were measured to ensure the stability of the cell layer throughout the experiment. To double check the integrity of the barrier, lucifer yellow (LY, 50 μM), as a paracellular transfer marker, was applied. The amount of LY found in the basolateral compartment after 1 h was measured at λex = 430 nm and λ em = 540 nm.
After completion of each transport experiment, both active and passive, lucifer yellow (LY) was applied in 50 μM concentration in the apical compartments. Samples were drawn after 1 h and the amount of LY in the basolateral compartment was quantitated via external calibration. The permeability coefficients for LY through cells treated with the solvent control (ACN 0.1% and 0.02%) and through cells treated with the test compounds for the past 48 h were calculated (Table 2). The permeability coefficients range in the same order of magnitude for test substance treated cells and cells incubated with solvent, which is considerably lower than the permeability coefficients derived for ENN B and ENN B1 and indicates an intact and tight monolayer with low paracellular transfer of compounds.

One may read the Papp as a coefficient for how fast a substance crosses the barrier. `Cn1c(=O)c2c(ncn2C)n(C)c1=O` [caffeine]: the Papp in the series on PBCEC was 1.55e-05 cm/s.

Take lucifer yellow [LY]: the “Permeability coefficient of LY” value with PBCEC monolayer (after 48 h treatment with 200 nM ENN B1 in both compartments (active)) is recorded as 0.9 10^−6 cm/s; in the series with PBCEC monolayer (after 48 h treatment with 200 nM ENN B in both compartments (active)), 0.7 10^−6 cm/s; with PBCEC monolayer (after 48 h treatment with 1 μM ENN B1 apically (passive)), 2.2 10^−6 cm/s; with PBCEC monolayer (after 48 h treatment with 1 μM ENN B apically (passive)), 1.9 10^−6 cm/s; in the series with PBCEC monolayer (solvent control ACN 0.02%), 0.2 10^−6 cm/s; with PBCEC monolayer (solvent control ACN 0.1%), 3.2 10^−6 cm/s.

The values above are taken from PMC5955586, “Transport of enniatin B and enniatin B1 across the blood-brain barrier and hints for neurotoxic effects in cerebral cells” (PLoS ONE, 2018).
